Results reported in PubChem BioAssay (NCI).
≈ marks a conversion by molar mass, not a printed value.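 How tested: cells in 96-well plates exposed to compound for 48 hours at five concentrations. GI50 = concentration required for 50% inhibition of growth. TGI marks complete inhibition of growth.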

Columns and labels:
Assay in all cases: NCI-60 cell line screen, 48 h
CAKI-1 renal = tested on: CAKI-1 renal
DU-145 prostate = tested on: DU-145 prostate
HCC-2998 colon = tested on: HCC-2998 colon
HL-60(TB) leukemia = tested on: HL-60(TB) leukemia
K-562 leukemia = tested on: K-562 leukemia
MDA-MB-435 = tested on: MDA-MB-435
RXF 393 renal = tested on: RXF 393 renal
SF-295 CNS = tested on: SF-295 CNS
SK-MEL-28 melanoma = tested on: SK-MEL-28 melanoma
UACC-62 melanoma = tested on: UACC-62 melanoma

SMILES	TGI (CAKI-1 renal)	TGI (DU-145 prostate)	TGI (HCC-2998 colon) [µM]	TGI (HL-60(TB) leukemia)	TGI (K-562 leukemia)	TGI (MDA-MB-435)	TGI (RXF 393 renal)	TGI (SF-295 CNS)	TGI (SK-MEL-28 melanoma)	TGI (UACC-62 melanoma)	GI50 (CAKI-1 renal) [µg/mL]	GI50 (DU-145 prostate) [µg/mL]	GI50 (HL-60(TB) leukemia)	GI50 (K-562 leukemia)	GI50 (MDA-MB-435) [µg/mL]	GI50 (RXF 393 renal) [µg/mL]	GI50 (SF-295 CNS) [µg/mL]	GI50 (SK-MEL-28 melanoma)	GI50 (UACC-62 melanoma) [µg/mL]	GI50 (HCC-2998 colon) [µM]
COc1c2c(cc3c1C(O)N1CC[C@]34[C@H]3O[C@H]3[C@H](OC)C[C@@H]14)OCO2 (some centres undefined)	> 100 µM	> 100 µM	> 100	3.53 µM	> 100 µM	> 100 µM	> 100 µM	71.7 µM	> 100 µM	> 100 µM										
OCCOCn1cc(Cn2ncc3c(SCc4ccccc4)ncnc32)nn1	> 100 µM	> 100 µM	> 100	45.1 µM	> 100 µM	35.1 µM	> 100 µM	> 100 µM	> 100 µM	> 100 µM										
O=C(CCN1CC2CCC(CC2)C1)c1cccs1	34.5 µM	33.8 µM	29	44.3 µM	44 µM	42.3 µM	37 µM	> 100 µM	32.5 µM	31.9 µM										
CC1(C)CC(=O)C2=C(C1)NC(SSC1=C(C#N)C(c3ccc(F)cc3)C3=C(CC(C)(C)CC3=O)N1)=C(C#N)C2c1ccc(F)cc1 (centres undefined)	50.7 µg/mL	15 µg/mL		> 150 µg/mL	> 150 µg/mL	46.9 µg/mL	41.1 µg/mL	> 150 µg/mL	46.4 µg/mL	43.9 µg/mL	29.5 (≈ 45 µM)	15 (≈ 22.9 µM)	47.1 µg/mL	17.1 µg/mL	26.2 (≈ 40 µM)	21.4 (≈ 32.7 µM)	150 (≈ 229 µM)	25.8 µg/mL	23.7 (≈ 36.2 µM)	
O=C(O)C(CSC(c1ccccc1)(c1ccccc1)c1ccccc1)N=Cc1cccs1 (centres undefined)	> 54.7 µM	> 38.1 µM	27.7	26.6 µM	> 100 µM	1.21 µM	> 19.6 µM	> 100 µM	> 100 µM	> 78.3 µM										
NNC(=O)c1ccccc1Nc1ccccc1C(=O)NN	> 100 µM	> 100 µM	> 100	> 100 µM	> 100 µM	> 100 µM	> 100 µM	> 100 µM	> 100 µM	> 100 µM										
NCCNc1nc(N2CCCC2)c2nc(Cl)c(NCc3ccccc3)nc2n1	15.2 µM	3.55 µM	2.88	3.99 µM	0.182 µM	3.19 µM	2.91 µM	3.5 µM	3.39 µM	3.19 µM										
CCC(C)C1NC(=O)C2CCCN2C(=O)C(CC2CO2)OC(=O)CCNC(=O)C(C)N(C)C(=O)C(C(C)C)N(C)C1=O (centres undefined)	> 100 µM	> 100 µM	> 100		> 100 µM	> 100 µM	> 100 µM		> 100 µM	2.15 µM										
O=S(=O)(/N=C(\NO)Nc1ccc(Cl)cc1)c1ccc(S(=O)(=O)c2ccccc2)s1	91.4 µM	46 µM	29.7	50.6 µM	40.3 µM	37.3 µM	87.7 µM	> 100 µM	40.7 µM	33.7 µM										
CS(=O)(=O)c1nc(-c2cc3c(c(S(C)(=O)=O)n2)CCCC3)cc2c1CCCC2	> 59.1 µM	> 100 µM	> 100	> 100 µM	> 100 µM	> 100 µM	> 74.9 µM	> 93.9 µM	> 100 µM	> 62.3 µM										
O=S(=O)(O)c1cccc2c(N=Nc3c(O)ccc4ccccc34)cccc12	> 100 µM	> 100 µM			> 100 µM	> 100 µM	> 100 µM	> 100 µM	> 100 µM	> 100 µM										
C/C(=N\NC(=O)c1cccnc1)c1cccc(/C(C)=N/NC(=O)c2cccnc2)n1			> 100	> 100 µM	> 100 µM			20.5 µM	> 100 µM	5.7 µM			1.67 µM	3.04 µM				9.56 µM		2.17
CC(=O)N(C)c1ccc2c(ccc[n+]2[O-])c1[N+](=O)[O-]	> 100 µM		> 100	> 100 µM	> 100 µM		> 100 µM	> 100 µM	> 100 µM	> 100 µM										
Nc1ccccc1N/C(=C\C(=O)C(Cl)(Cl)Cl)c1ccccc1	> 100 µM	> 100 µM	34.9	55.3 µM	> 100 µM	> 100 µM	53.4 µM	> 100 µM	> 100 µM	45.3 µM										
C[C@]12CC[C@@H]3c4ccccc4CC[C@H]3[C@@H]1CC[C@@H]2O			> 100		> 100 µM		> 100 µM	> 100 µM	> 100 µM	> 100 µM										
CC(Sc1ccccc1)C(CO)(CO)[N+](=O)[O-] (centres undefined)	33.1 µM		31.5	16 µM	34.4 µM		31.3 µM	28.9 µM		29.9 µM										
C[C@]12CCC(=O)C=C1CC[C@@H]1[C@@H]2[C@@H](O)C[C@@]2(C)[C@H]1CC[C@]2(O)C(=O)CO	> 100 µM	> 100 µM	> 100	> 100 µM	> 100 µM	> 100 µM	> 100 µM	> 100 µM	> 100 µM	> 100 µM										
Clc1ccc(Nc2nc(Cl)c3[nH]cnc3n2)cc1Cl	16.6 µM	> 100 µM	31.1	47.7 µM	> 100 µM	80.3 µM	81.2 µM	79.7 µM		> 100 µM										
COC(=O)C1C(C)N1C (centres undefined)			> 100	> 100 µM	> 100 µM		> 100 µM		> 100 µM	> 100 µM										
CN1C2CCC1C(C(O)c1ccccc1[N+](=O)[O-])C(=O)C2 (centres undefined)	> 100 µM	86.8 µM	> 100	> 100 µM	> 100 µM	53 µM		> 100 µM	> 100 µM	> 100 µM										
